Test results from patent US12540150B1, “Fluorogenic probe using a Mislow-Evans rearrangement for real-time imaging of hydrogen peroxide” (University of Pittsburgh—Of the Commonwealth System of …, priority 2020, dated 2026).
“And” between values parts separate entries of the source, which are not always exact repeats. Equal entries are not always repeated.

Legend:
[1] = Fluorescence intensity of selenide 1 and phenol 5; type: physicochemical
Description: All fluorescence measurements (excitation 490 nm, emission 510-570 nm) were carried out using a Promega Biosystems Modulus II Microplate Reader or a HoribaMax Fluorometer unless otherwise stated. Data analysis was performed using GraphPad Prism 8.
The fluorescence intensity of selenide 1 and phenol 5 were investigated. Solutions containing ultrapure water (681 μL), […] phosphate pH 7 buffer (31 μL), DMSO (28.1 μL), and 80 μM 1 or phenol 5 in DMSO (9.4 μL) were made. Aliquots of these solutions (200 μL) were transferred to the wells of a black 96-well plate and the fluorescence was measured. As evident from FIG. 10 and Table 1, the difference in fluorescence intensity of probe 1 and phenol 5, is 27-fold. Generally, O-alkylation of Pittsburgh Green suppresses the fluorescence by 200-400 fold. The somewhat modest fluorescence increase in the current system is attributed to the trace contamination of the fluorescent compound 5 during the purification of the nonfluorescent probe 1.

[2] = Selectivity of 1: reaction with O2^·−; details: for Fluorescence Intensity: 15 min
Description: Following the concentration dependence studies, the selectivity of 1 was assessed against O2^·−, ^1O2, ·OH, ClO^−, ONOO^−, 'BuOOH, NO3^−, NO2, and NO·. […] The production of some of these ROS required H2O2 as a reagent or generated H2O2 as a product, for which we carefully performed control experiments as detailed below. For example, a solution of 100 μM 1 in ethanol (20 μL) was added to 5:95 methanol/50 mM phosphate pH 7 buffer (140 μL). […] A control containing 100 μM 1 in ethanol (20 μL), 5:95 methanol/50 mM phosphate pH 7 buffer (160 μL), and 700 mM H2O2 (20 μL) was also generated. The solutions were allowed to incubate at 25° C. for 15 min prior to measuring fluorescence. […] Therefore, 1 is selective for H2O2 over O2^·−.

[3] = Selectivity of 1: reaction with ·OH; details: for Fluorescence: 40 min minus 0 min
Description: The reactivity of 1 with ·OH was also investigated. ·OH was generated through the reaction of FeSO4·7H2O with H2O2. A solution of 100 μM 1 in ethanol (20 μL) was added to 5:95 methanol/50 mM phosphate pH 7 buffer (140 μL). Water or 104 U/mL catalase (20 μL) was added to the mixture. FeSO4·7H2O (27.4 mg) was added to ultrapure water (2.00 mL). This solution was diluted to 20 μM, 200 μM, and 2.00 mM. H2O2 was diluted to 200 μM and 2.00 mM. Equal volumes of FeSO4·7H2O solution and H2O2 were added together, and an aliquot (20 μL) was immediately transferred to the solution containing 1. The fluorescence intensity was measured immediately and again after incubation at 25° C. for 40 min. […] The Fluorescence values in Table 8 are the fluorescence at 40 min minus the fluorescence at 0 min.

[4] = Selectivity of 1: reaction with NO3^−; details: for Fluorescence: 15 min minus 0 min
Description: The probe 1 was then exposed to NO3^− at various concentrations. NaNO3 (30.9 mg) was dissolved in ultrapure water (2.00 mL). This solution was diluted to 10 μM, 100 μM, 1.00 mM, and 10.0 mM. H2O2 was diluted to 10 μM, 100 μM, 1.00 mM, and 10.0 mM. A solution of 100 μM 1 in ethanol (20 μL) was added to 5:95 methanol/50 mM pH 7 potassium phosphate buffer (160 μL). The NaNO3 or H2O2 solutions (20 μL) were added to the solution containing 1 and the fluorescence intensity was measured immediately and again after incubation at 25° C. for 15 min. The fluorescence change over the first 15 min was reported for NO3^− in FIG. 21 and Table 12. The fluorescence values in Table 12 are the fluorescence at 15 min minus the fluorescence at 0 min.

[5] = Response of probe 1 to H2O2 at various pHs; details: for Fluorescence: 23° C., 20 min
Description: The probe's response to H2O2 in the pH 4-7.3 range was studied to determine whether this technology would work in acidic and neutral intracellular environments, such as lysosomes (pH 5), Golgi apparatus (pH 6.4-6.8), mitochondria (pH 6.9-8.0), and cytoplasm (pH 7.1-7.6). A solution of 50 mM phosphate pH 7.3 buffer was treated with 1.0 N HCl to adjust the pH to 7.0, 6.5, 5.9, 5.4, 4.5, or 4.1. The concentration of the resulting buffers was adjusted with water to 25 mM phosphate buffer. Solutions of 25 mM phosphate pH 7.3, 7.0, 6.5, 5.9, 5.4, 4.5, or 4.1 buffer ([…]) and 100 μM probe 1 in MeOH were treated with 100 μM, 10 μM or 0 μM H2O2 in water. The solutions were allowed to incubate at 23° C. for 20 min prior to measuring the fluorescence.

[6] = Selectivity of 1: reaction with NO·; details: 15 min minus 0 min

Oc1ccc2c(c1)Oc1cc(O/C=C/C[Se]c3ccccc3)ccc1[C@@]21OCc2ccccc21 [Compound 1, (S,E)-6′-((3-(Phenylselanyl)prop-1-en-1-yl)oxy)-3H-spiro[isobenzofuran-1,9′-xanthen]-3′-ol]
signal increase in the conversion if trace phenol 5 can be removed from selenide 1 ([1]; extrapolated): 125-250 fold | difference in fluorescence intensity of probe 1 and phenol 5 ([1]; phosphate pH 7 buffer): 27 fold | Fluorescence Intensity ([1]; water/phosphate pH 7 buffer/DMSO, 200 μL, excitation 490 nm, emission 510-570 nm, replicates n = 3): 7,053 and 11,524 and 8,556 | reaction with O2^·− [2]: did not react | Fluorescence Intensity ([2]; KO2 + 10 U/mL catalase, pH 7, 25° C.): 104,768 and 72,151 and 98,514 | Fluorescence Intensity ([2]; KO2 + 10^4 U/mL catalase, pH 7, 25° C.): 63,553 and 41,950 and 67,009 | Fluorescence Intensity ([2]; KO2, phosphate pH 7, 25° C.): 106,099 and 92,938 and 99,300 | reaction with FeSO4 or ·OH [3]: neither FeSO4 nor the ·OH reacted with the probe | Fluorescence ([3]; catalase, FeSO4 0 μM, 0 μM H2O2): 31,506 and 41,340 and 38,159 | Fluorescence ([3]; catalase, FeSO4 1 μM, 0 μM H2O2): 28,688 and 24,359 and 45,310 | Fluorescence ([3]; catalase, FeSO4 1 μM, 100 μM H2O2): 38,285 and 34,591 and 26,790 | Fluorescence ([3]; catalase, FeSO4 10 μM, 0 μM H2O2): 24,822 and 33,920 and 47,376 | Fluorescence ([3]; catalase, FeSO4 10 μM, 100 μM H2O2): 32,300 and 42,724 and 50,635 | Fluorescence ([3]; catalase, FeSO4 100 μM, 0 μM H2O2): 35,828 and 18,194 and 20,321 | Fluorescence ([3]; catalase, FeSO4 100 μM, 10 μM H2O2): 20,486 and 26,765 and 15,423 | Fluorescence ([3]; catalase, FeSO4 100 μM, 100 μM H2O2): 46,232 and 46,921 and 52,666 | Fluorescence ([3]; no additive, FeSO4 0 μM, 0 μM H2O2): 50,173 and 48,124 and 44,143 | Fluorescence ([3]; no additive, FeSO4 0 μM, 10 μM H2O2): 43,929 and 46,186 and 43,989 | Fluorescence ([3]; no additive, FeSO4 0 μM, 100 μM H2O2): 85,271 and 94,742 and 95,713 | Fluorescence ([3]; no additive, FeSO4 1 μM, 0 μM H2O2): 44,775 and 42,847 and 41,775 | Fluorescence ([3]; no additive, FeSO4 1 μM, 10 μM H2O2): 49,425 and 47,262 and 44,251 | Fluorescence ([3]; no additive, FeSO4 1 μM, 100 μM H2O2): 86,594 and 103,905 and 91,684 | Fluorescence ([3]; no additive, FeSO4 10 μM, 0 μM H2O2): 43,299 and 42,365 and 40,214 | Fluorescence ([3]; no additive, FeSO4 10 μM, 10 μM H2O2): 42,933 and 40,908 and 38,283 | Fluorescence ([3]; no additive, FeSO4 10 μM, 100 μM H2O2): 91,049 and 90,712 and 94,948 | Fluorescence ([3]; no additive, FeSO4 100 μM, 0 μM H2O2): 32,709 and 41,351 and 31,615 | Fluorescence ([3]; no additive, FeSO4 100 μM, 10 μM H2O2): 56,260 and 46,281 and 43,358 | Fluorescence ([3]; no additive, FeSO4 100 μM, 100 μM H2O2): 99,384 and 99,391 and 95,778 | reaction with NO3^− [4]: did not react | Fluorescence ([4]; 0 μM NO3^− or H2O2, pH 7, 25° C.): 24,359 and 26,870 and 26,226 | Fluorescence ([4]; 0.1 μM H2O2): 58,172 and 52,104 and 52,249 | Fluorescence ([4]; 0.1 μM NO3^−): 34,507 and 35,439 and 40,487 | Fluorescence ([4]; 1 μM H2O2): 266,770 and 242,313 and 222,834 | Fluorescence ([4]; 1 μM NO3^−): 43,966 and 35,385 and 47,433 | pH dependence of fluorescence signals with H2O2 ([5]; pH 4-7.3 range): higher when the pH was above 5.4 | Fluorescence ([5]; pH 4.10, 0 μM H2O2): 28,470 and 25,037 and 28,661 | Fluorescence ([5]; pH 4.10, 1 μM H2O2): 35,884 and 30,492 and 30,471 | Fluorescence ([5]; pH 4.10, 10 μM H2O2): 51,632 and 54,097 and 52,472 | Fluorescence ([5]; pH 4.50, 0 μM H2O2): 29,770 and 29,064 and 29,069 | Fluorescence ([5]; pH 4.50, 1 μM H2O2): 40,599 and 31,790 and 33,283 | Fluorescence ([5]; pH 4.50, 10 μM H2O2): 55,577 and 54,961 and 56,315 | Fluorescence ([5]; pH 5.40, 0 μM H2O2): 56,192 and 56,334 and 52,671 | Fluorescence ([5]; pH 5.40, 1 μM H2O2): 61,365 and 63,294 and 60,943 | Fluorescence ([5]; pH 5.40, 10 μM H2O2): 106,516 and 107,311 and 103,354 | Fluorescence ([5]; pH 5.90, 0 μM H2O2): 87,499 and 89,708 and 90,424 | Fluorescence ([5]; pH 5.90, 1 μM H2O2): 113,703 and 111,368 and 107,545 | Fluorescence ([5]; pH 5.90, 10 μM H2O2): 167,836 and 187,633 and 154,515 | Fluorescence ([5]; pH 6.50, 0 μM H2O2): 155,151 and 183,747 and 149,421 | Fluorescence ([5]; pH 6.50, 1 μM H2O2): 203,661 and 188,050 and 184,986 | Fluorescence ([5]; pH 6.50, 10 μM H2O2): 332,896 and 341,948 and 335,544 | Fluorescence ([5]; pH 7.00, 0 μM H2O2): 199,101 and 207,136 and 187,676 | Fluorescence ([5]; pH 7.00, 1 μM H2O2): 247,464 and 221,499 and 229,530 | Fluorescence ([5]; pH 7.00, 10 μM H2O2): 389,464 and 369,467 and 390,006 | Fluorescence ([5]; pH 7.30, 0 μM H2O2): 189,898 and 183,424 and 169,054 | Fluorescence ([5]; pH 7.30, 1 μM H2O2): 228,368 and 208,913 and 186,665 | Fluorescence ([5]; pH 7.30, 10 μM H2O2): 373,555 and 388,584 and 401,912 | Fluorescence ([6]; 0.1 μM H2O2): 9,370 and 9,525 and 9,517 | Fluorescence ([6]; 1 μM H2O2): 26,155 and 26,618 and 27,176 | Fluorescence ([6]; 10 μM H2O2): 111,008 and 106,765 and 111,053
